Assays:
[1] = Liquid
[2] = excess molar enthalpy (molar enthalpy of mixing); xn = mol fraction of the nth substance listed; conditions: Liquid

CN(C)CCO [2-(N,N-dimethylamino)ethanol]
molar volume [m3/mol], [1]
Conditions | 298.15 K | 313.15 K | 328.15 K
100 kPa | 0.0001009 | 0.0001024 | 0.0001039
10000 kPa | 0.0001009 | 0.0001024 | 0.0001039

CN(C)CCO [2-(N,N-dimethylamino)ethanol] + CC(C)O
excess molar enthalpy [kcal/mol], [2]
Conditions | 298.2 K | 313.2 K | 328.2 K
100 kPa, x1 = 0.0496 | – | -0.00404 | –
100 kPa, x1 = 0.0499 | – | – | -0.00858
100 kPa, x1 = 0.1008 | 0.00387 | -0.00413 | –
100 kPa, x1 = 0.1014 | – | – | -0.0122
100 kPa, x1 = 0.1502 | 0.00667 | -0.00304 | –
100 kPa, x1 = 0.1511 | – | – | -0.0135
100 kPa, x1 = 0.1994 | 0.00889 | -0.00167 | –
100 kPa, x1 = 0.2005 | – | – | -0.0137
100 kPa, x1 = 0.2501 | 0.0103 | -0.000645 | –
100 kPa, x1 = 0.2513 | – | – | -0.0135
100 kPa, x1 = 0.3005 | 0.0112 | 0.000215 | –
100 kPa, x1 = 0.3018 | – | – | -0.0132
100 kPa, x1 = 0.3504 | 0.0115 | 0.000693 | –
100 kPa, x1 = 0.3519 | – | – | -0.013
100 kPa, x1 = 0.3999 | 0.0114 | 0.000813 | –
100 kPa, x1 = 0.4015 | – | – | -0.0127
100 kPa, x1 = 0.4507 | 0.0109 | 0.000717 | –
100 kPa, x1 = 0.4524 | – | – | -0.0124
100 kPa, x1 = 0.501 | 0.01 | 0.000478 | –
100 kPa, x1 = 0.5026 | – | – | -0.012
100 kPa, x1 = 0.5505 | 0.00891 | -0.00012 | –
100 kPa, x1 = 0.5522 | – | – | -0.0115
100 kPa, x1 = 0.5993 | 0.00784 | -0.000287 | –
100 kPa, x1 = 0.6009 | – | – | -0.0109
100 kPa, x1 = 0.6508 | – | – | -0.0103
10000 kPa, x1 = 0.0499 | – | -0.0044 | -0.00937
10000 kPa, x1 = 0.0998 | 0.00325 | -0.00464 | -0.0129
10000 kPa, x1 = 0.1494 | – | -0.00457 | –
10000 kPa, x1 = 0.2005 | 0.00825 | -0.00237 | -0.0145
10000 kPa, x1 = 0.2496 | 0.00958 | -0.00134 | -0.0143
10000 kPa, x1 = 0.3 | 0.0103 | -0.000598 | -0.0139
10000 kPa, x1 = 0.35 | 0.0107 | -0.000167 | -0.0135
10000 kPa, x1 = 0.3995 | 0.0107 | -2.39e-05 | -0.0131
10000 kPa, x1 = 0.4504 | 0.0103 | -9.56e-05 | -0.0127
10000 kPa, x1 = 0.5006 | 0.0097 | -0.000311 | -0.0123
10000 kPa, x1 = 0.5501 | 0.00889 | -0.000621 | -0.0118
10000 kPa, x1 = 0.6009 | 0.00789 | – | -0.0111
10000 kPa, x1 = 0.6508 | – | – | -0.0109

CN(C)CCO [2-(N,N-dimethylamino)ethanol] + CCCO
excess molar enthalpy [kcal/mol], [2], Flow calorimetry
Conditions | 298.2 K | 313.2 K | 328.2 K
100 kPa, x1 = 0.2007 | -0.0457 | – | -0.0632
100 kPa, x1 = 0.2509 | -0.0511 | – | -0.0696
100 kPa, x1 = 0.2984 | – | -0.06 | –
100 kPa, x1 = 0.3008 | -0.0552 | – | -0.0748
100 kPa, x1 = 0.3505 | -0.0583 | -0.0638 | -0.0781
100 kPa, x1 = 0.3999 | -0.0599 | – | -0.0796
100 kPa, x1 = 0.4012 | – | -0.066 | –
100 kPa, x1 = 0.4501 | – | -0.0668 | –
100 kPa, x1 = 0.4507 | -0.0602 | – | -0.0797
100 kPa, x1 = 0.499 | -0.0606 | – | -0.0781
100 kPa, x1 = 0.5004 | – | -0.0662 | –
100 kPa, x1 = 0.5488 | – | -0.0642 | –
100 kPa, x1 = 0.5509 | -0.0586 | – | -0.0749
100 kPa, x1 = 0.5985 | – | -0.0613 | –
100 kPa, x1 = 0.6 | -0.056 | – | -0.0707
100 kPa, x1 = 0.6497 | – | -0.0571 | –
100 kPa, x1 = 0.6505 | -0.0524 | – | -0.065
100 kPa, x1 = 0.6986 | – | -0.0518 | –
100 kPa, x1 = 0.7001 | – | – | -0.0585
100 kPa, x1 = 0.7488 | – | -0.0455 | –
100 kPa, x1 = 0.8005 | – | -0.0377 | –
100 kPa, x1 = 0.8495 | – | -0.0297 | –
10000 kPa, x1 = 0.2001 | -0.0457 | – | -0.063
10000 kPa, x1 = 0.2492 | – | -0.0553 | –
10000 kPa, x1 = 0.2503 | -0.0511 | – | -0.0701
10000 kPa, x1 = 0.2998 | – | -0.0611 | –
10000 kPa, x1 = 0.3004 | -0.0553 | – | -0.0757
10000 kPa, x1 = 0.3489 | – | -0.0646 | –
10000 kPa, x1 = 0.3502 | -0.0582 | – | -0.079
10000 kPa, x1 = 0.3995 | -0.0602 | -0.0667 | -0.0808
10000 kPa, x1 = 0.4484 | – | -0.0674 | –
10000 kPa, x1 = 0.4504 | -0.0609 | – | -0.0811
10000 kPa, x1 = 0.4986 | – | -0.067 | –
10000 kPa, x1 = 0.5007 | -0.0605 | – | -0.0793
10000 kPa, x1 = 0.5504 | -0.0587 | -0.065 | -0.0764
10000 kPa, x1 = 0.5994 | -0.056 | – | -0.0722
10000 kPa, x1 = 0.6001 | – | -0.0618 | –
10000 kPa, x1 = 0.6497 | -0.0527 | – | -0.0667
10000 kPa, x1 = 0.6512 | – | -0.0573 | –
10000 kPa, x1 = 0.7 | – | -0.0518 | –
10000 kPa, x1 = 0.7501 | – | -0.0453 | –
10000 kPa, x1 = 0.8015 | – | -0.0375 | –
10000 kPa, x1 = 0.8503 | – | -0.0293 | –

CCO [ethanol]
molar volume [m3/mol], [1]
Conditions | 298.15 K | 313.15 K | 328.15 K
100 kPa | 5.867e-05 | 5.964e-05 | 6.067e-05
10000 kPa | 5.803e-05 | 5.899e-05 | 6.001e-05

CO [methanol]
molar volume [m3/mol], [1]
Conditions | 298.15 K | 313.15 K | 328.15 K
100 kPa | 4.073e-05 | 4.146e-05 | 4.221e-05
10000 kPa | 4.024e-05 | 4.096e-05 | 4.17e-05

CCCO [propan-1-ol]
molar volume [m3/mol], [1]
Conditions | 298.15 K | 313.15 K | 328.15 K
100 kPa | 7.514e-05 | 7.632e-05 | 7.759e-05
10000 kPa | 7.452e-05 | 7.569e-05 | 7.694e-05

CC(C)O [propan-2-ol]
molar volume [m3/mol], [1]
Conditions | 298.15 K | 313.15 K | 328.15 K
100 kPa | 7.694e-05 | 7.822e-05 | 7.962e-05
10000 kPa | 7.594e-05 | 7.72e-05 | 7.857e-05

Source: the NIST ThermoML archive (doi:10.1021/je800334m)
